Results reported in patent US20110053773A1, “METHODS OF IMPROVING NUTRITIONAL VALUE OF PLANTS” (UNIVERSITY OF TENNESSEE RESEARCH FOUNDATION, priority 2009, published 2011).

Columns and labels:
[1] = test system: sweet corn (Zea mays var. rugosa) cultivar 'Incredible'; experiment: Content analysis of sweet corn ears: crude protein, amino acids, detergent fiber, fatty acids, minerals (Example 1); type: in vivo; settings: POST at b59 rates; every treatment incl. check also got atrazine 560 g ai/ha + COC 1% v/v; relative to treated check (atrazine), check=0
Source text: Herbicide treatments were applied in a water carrier at 23 gallons of solution per acre on a field site near Knoxville, Tenn. and Painter, Va. Treatments include the following: 1) nicosulfuron at 35 g ai/ha (Accent); 2) mesotrione at 105 g ai/ha (Callisto); 3) nicosulfuron at 35 g ai/ha+mesotrione at 105 g ai/ha (Callisto+Accent); 4) tembotrione at 92 g ai/ha+isoxadifen-ethyl at 46 g ai/ha (Laudis); 5) topramezone at 15 g ai/ha (Impact); 6) nicosulfuron at 35 g ai/ha+isoxadifen-ethyl at 9 g ai/ha (Accent Q); 7) nicosulfuron at 35 g ai/ha+isoxadifen-ethyl at 9 g ai/ha+topramezone at 15 g ai/ha (Accent Q+Impact); 8) nicosulfuron 35 g ai/ha+isoxadifen-ethyl at 9 g ai/ha+mesotrione at 105 g ai/ha (Accent Q+Callisto); 9) treated check (atrazine or Aatrex). All treatments included a PRE application of atrazine plus metolachlor in order to maintain weed free conditions. In addition, all POST treatments (including the treated check) included atrazine at 560 g ai/ha and crop oil concentrate at 1% v/v. […] Sweet corn was harvested from the center two rows of each four row plot and weighed in the husk.

[2] = test system: sweet corn variety 'Incredible'; experiment: Sugar and key antioxidant content of sweet corn (Example 1, Table 15); type: in vivo, Zea mays var. rugosa; settings: rates g ai/ha: Nicosulfuron 35, Mesotrione 105, Topramezone 18, Isoxadifen-ethyl 13, all incl. treated check with atrazine 560 g ai/ha + 1% v/v crop oil concentrate
Source text: Herbicide treatments were applied in a water carrier at 23 gallons of solution per acre on a field site near Knoxville, Tenn. and Painter, Va. […] All treatments included a PRE application of atrazine plus metolachlor in order to maintain weed free conditions. In addition, all POST treatments (including the treated check) included atrazine at 560 g ai/ha and crop oil concentrate at 1% v/v. […] Sweet corn was harvested from the center two rows of each four row plot and weighed in the husk.

Row | Compound | Acid DF [1] | Alanine [1] | Amino Acid [1] | Aspartic ac [1] | Cysteine [1] | Glutamic ac [1] | Glycine [1] | Isoleucine [1] | Leucine [1] | Lysine [1] | Methionine [1] | Neutral DF [1] | Proline [1] | Protein [1] | Threonine [1] | Valine [1] | calcium [1] | copper [1] | iron [1] | magnesium [1] | also measured
1 | Cc1c(C(=O)c2cnn(C)c2O)ccc(S(C)(=O)=O)c1C1=NOCC1 [Topramezone*IMPACT, topramezone] | 2 % of check | 8 % of check | 7 % of check | 6 % of check | 3 % of check | 6 % of check | 4 % of check | 10 % of check | 8 % of check | 10 % of check | 8 % of check | 7 % of check | 6 % of check | 8 % of check | 12 % of check | 9 % of check | 0 % of check | 0 % of check | 23 % of check | 13 % of check | manganese [1]: 38 % of check; mon fattyac [1]: 10 % of check; phosphorous [1]: 8 % of check; polyfattyac [1]: 9 % of check; potassium [1]: 6 % of check; sat fattyac [1]: 8 % of check; sodium [1]: 29 % of check; tot fattyac [1]: 9 % of check; zinc [1]: 4 % of check; Fructose, percent increase [2]: 63%; Gamma-tocopherol, percent increase [2]: 8%; Glucose, percent increase [2]: 40%; Lutein, percent increase [2]: 0%; Maltose, percent increase [2]: 8%; Sucrose, percent increase [2]: −18%; Total Sugars, percent increase [2]: 10%; Zeaxanthin, percent increase [2]: −8%; antheraxanthin, percent increase [2]: 23%
2 | COc1cc(OC)nc(NC(=O)NS(=O)(=O)c2ncccc2C(=O)N(C)C)n1 [Nicosulfuron*ACCENT, nicosulfuron] | 9 % of check | 1 % of check | −1 % of check | −4 % of check | 0 % of check | −2 % of check | −4 % of check | 0 % of check | 0 % of check | 1 % of check | 0 % of check | 4 % of check | −7 % of check | 7 % of check | 2 % of check | 0 % of check | 0 % of check | 0 % of check | 14 % of check | 14 % of check | manganese [1]: 33 % of check; mon fattyac [1]: 15 % of check; phosphorous [1]: 6 % of check; polyfattyac [1]: 12 % of check; potassium [1]: 1 % of check; sat fattyac [1]: 12 % of check; sodium [1]: 21 % of check; tot fattyac [1]: 13 % of check; zinc [1]: 2 % of check; Fructose, percent increase [2]: 48%; Gamma-tocopherol, percent increase [2]: 1%; Glucose, percent increase [2]: 35%; Lutein, percent increase [2]: 9%; Maltose, percent increase [2]: 23%; Sucrose, percent increase [2]: −4%; Total Sugars, percent increase [2]: 16%; Zeaxanthin, percent increase [2]: 9%; antheraxanthin, percent increase [2]: 15%
